# Source: ChEMBL document CHEMBL1201862, “PubChem BioAssay data set” (2004)
# Active and inactive are the calls of the source.
# Key:
# Bcl-2-related protein A1 = molecular target: T1, Bcl-2-related protein A1 (Mus musculus, UniProt Q07440); format: functional;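 further: confirmatory dose–response counterscreen on Bfl-1, used to check hits from a UBC13 polyubiquitin inhibitor campaign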
# T1 sequence (Q07440 whole entry): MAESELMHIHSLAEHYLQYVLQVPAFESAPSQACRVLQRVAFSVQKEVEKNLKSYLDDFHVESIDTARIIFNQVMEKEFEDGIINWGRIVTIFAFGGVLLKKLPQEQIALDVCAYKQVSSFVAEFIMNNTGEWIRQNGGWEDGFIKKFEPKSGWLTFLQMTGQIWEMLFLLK
# [1] = molecular target: T2, Ubiquitin-conjugating enzyme E2 N (Homo sapiens, UniProt P61088); format: functional
# T2 sequence (P61088 whole entry): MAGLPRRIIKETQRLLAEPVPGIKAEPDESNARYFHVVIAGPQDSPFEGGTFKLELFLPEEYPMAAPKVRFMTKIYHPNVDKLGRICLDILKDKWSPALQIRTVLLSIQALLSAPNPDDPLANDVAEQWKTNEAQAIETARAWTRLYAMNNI
# [2] = NIH-3T3 fibroblast cytotoxicity, dose response, cytotoxicity control, cell-based, fluorescence, Alamar Blue, secondary assay (AID 2327); format: functional;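 further: NIH-3T3 mouse fibroblasts cultured with fluconazole at 8 µg/mL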
# Paired box protein Pax-8 = Paired box protein Pax-8 (Homo sapiens, UniProt Q06710); experiment: PAX8 transcriptional activity inhibition in RMG-I – RMG-I cells, luciferase, cherry-pick, dose response (AID 687027); format: functional, cell-based;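 further: luciferase reporter driven by Pax8 target thyroperoxidase promoter measured by SteadyGlo luminescence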
# [3] = general cell-killing toxicity readout – plate reader, dry powder samples, cytotoxicity control for PAX8 inhibitor project, dose response (AID 743021); format: functional, cell-based
# [4] = Luminescence Cell-Based Dose Retest to Confirm Inhibitors of Cancer Stem Cells. [Related pubchem assays (depositor defined):AID2717, AID2721]; format: functional; settings: Homo sapiens
# [5] = molecular target: T3, DNA repair protein RAD52 homolog (Homo sapiens, UniProt P43351); format: functional, biochemical
# T3 sequence (P43351 whole entry): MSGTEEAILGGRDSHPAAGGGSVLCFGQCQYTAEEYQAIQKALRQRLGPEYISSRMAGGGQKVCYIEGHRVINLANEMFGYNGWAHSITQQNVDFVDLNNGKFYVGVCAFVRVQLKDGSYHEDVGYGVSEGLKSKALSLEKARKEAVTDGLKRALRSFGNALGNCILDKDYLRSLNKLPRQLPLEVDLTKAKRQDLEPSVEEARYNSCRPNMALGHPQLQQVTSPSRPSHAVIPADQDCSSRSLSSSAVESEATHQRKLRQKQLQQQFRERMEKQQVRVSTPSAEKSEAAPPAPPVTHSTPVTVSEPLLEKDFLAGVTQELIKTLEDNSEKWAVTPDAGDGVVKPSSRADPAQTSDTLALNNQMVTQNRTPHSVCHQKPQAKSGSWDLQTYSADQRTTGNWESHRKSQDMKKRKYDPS
# [6] = molecular target: T2, Ubiquitin-conjugating enzyme E2 N; format: functional; remark: listed apart in the source
# [7] = fluconazole-exposed Candida albicans growth modulators – fluorescence, retest, confirmation (AID 2467); format: functional, cell-based
# [8] = molecular target: E3 ubiquitin-protein ligase Mdm2 (Homo sapiens, UniProt Q00987); experiment: MDM2-luc reporter signal enhancers, multi-concentration potency testing, MDM2 ubiquitin-protein ligase inhibitor program, whole-cell format, luminescence detection, 384-well microplate (AID 1394); format: functional;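 further: MDM2 E3 inhibitors raise luminescence so EC50 is for signal enhancement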
# [9] = HIV-1 Vif–A3G interaction blockers – biochemical, TR-FRET, GST-Vif 1-94, biotin-A3G peptide, dose response retest, primary screen (AID 1117319); format: functional;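 further: TR-FRET signal of purified GST-Vif binding a biotinylated A3G peptide; inhibitors lower the FRET signal by blocking Vif and A3G binding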
# [10] = molecular target: T4, Sentrin-specific protease 1 (Homo sapiens, UniProt Q9P0U3); experiment: SENP1 catalytic domain blockers, concentration series – biochemical, kinetic FRET, dose response (AID 651697); format: functional; settings: read-out: IC50_Mean
# T4 sequence (Q9P0U3 whole entry): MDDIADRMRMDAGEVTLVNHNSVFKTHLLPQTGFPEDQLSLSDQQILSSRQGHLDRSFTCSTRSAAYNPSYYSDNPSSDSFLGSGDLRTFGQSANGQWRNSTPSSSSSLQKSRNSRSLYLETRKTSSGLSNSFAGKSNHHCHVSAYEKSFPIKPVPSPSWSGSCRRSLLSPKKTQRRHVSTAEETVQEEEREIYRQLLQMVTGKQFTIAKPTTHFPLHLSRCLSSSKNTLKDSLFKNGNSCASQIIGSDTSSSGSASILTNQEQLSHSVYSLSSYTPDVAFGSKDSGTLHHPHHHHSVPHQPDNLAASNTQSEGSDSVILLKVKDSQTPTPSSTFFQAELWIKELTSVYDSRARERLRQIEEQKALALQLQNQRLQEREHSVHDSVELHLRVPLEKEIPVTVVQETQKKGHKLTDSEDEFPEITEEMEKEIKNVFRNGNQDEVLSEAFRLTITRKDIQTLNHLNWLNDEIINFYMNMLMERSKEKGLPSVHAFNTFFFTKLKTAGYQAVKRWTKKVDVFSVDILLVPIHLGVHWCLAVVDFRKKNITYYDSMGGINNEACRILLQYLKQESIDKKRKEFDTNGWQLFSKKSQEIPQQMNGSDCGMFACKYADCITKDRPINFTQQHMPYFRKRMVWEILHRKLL
# [11] = molecular target: T4, Sentrin-specific protease 1; experiment: Dose response confirmation of small molecule inhibitors of the catalytic domain of the SUMO protease, SENP1 in a FRET assay.; format: functional; settings: read-out: IC50_Mean
# [12] = molecular target: T5, Zinc finger protein mex-5 (Caenorhabditis elegans, UniProt Q9XUB2); experiment: potency of MEX-5 RNA-binding blockers – biochemical, C. elegans, fluorescence polarization, dose response (AID 1960)
# T5 sequence (Q9XUB2 whole entry): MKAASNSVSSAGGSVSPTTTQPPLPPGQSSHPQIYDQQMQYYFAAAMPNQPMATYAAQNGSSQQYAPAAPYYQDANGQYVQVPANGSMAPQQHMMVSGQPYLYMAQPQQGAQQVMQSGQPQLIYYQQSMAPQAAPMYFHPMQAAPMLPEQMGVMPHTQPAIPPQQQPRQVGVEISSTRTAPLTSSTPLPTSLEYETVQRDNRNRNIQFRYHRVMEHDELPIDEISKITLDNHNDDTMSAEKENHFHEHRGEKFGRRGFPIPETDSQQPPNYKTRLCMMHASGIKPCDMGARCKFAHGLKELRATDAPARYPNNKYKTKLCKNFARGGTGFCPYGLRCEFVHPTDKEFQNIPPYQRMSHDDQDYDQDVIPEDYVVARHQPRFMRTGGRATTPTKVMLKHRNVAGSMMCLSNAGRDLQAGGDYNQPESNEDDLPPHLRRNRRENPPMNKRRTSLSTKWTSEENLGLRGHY
# [13] = molecular target: T6, RNA-binding protein pos-1 (Caenorhabditis elegans, UniProt G5EF15); experiment: disruptors of C. elegans POS-1 RNA interaction – biochemical, fluorescence polarization, dose response (AID 1964);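 further: purified POS-1 fused to maltose binding protein made in E. coli; potency of compounds blocking POS-1 binding to fluorescent RNA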
# T6 sequence (G5EF15 whole entry): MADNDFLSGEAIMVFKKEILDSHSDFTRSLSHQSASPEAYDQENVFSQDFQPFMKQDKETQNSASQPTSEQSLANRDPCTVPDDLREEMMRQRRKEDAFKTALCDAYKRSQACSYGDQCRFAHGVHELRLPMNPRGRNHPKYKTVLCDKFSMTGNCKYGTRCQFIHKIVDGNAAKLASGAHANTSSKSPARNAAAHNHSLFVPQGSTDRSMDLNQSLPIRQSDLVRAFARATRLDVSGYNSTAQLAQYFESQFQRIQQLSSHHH
# [14] = A Cell Based Secondary Assay To Explore Cytotoxicity of Compounds that Sensitize Mycobacterium Tuberculosis to Beta-Lactam Antibiotics.; format: functional
# [15] = viability loss in HEK293 cells – cell-based, plate reader, cherry-picked samples, cytotoxicity control, dose response (AID 743446); format: functional
# [16] = blockade of melanocortin 4 receptor signaling – cell-based, plate reader, cherry pick, counter-screen for LGR2 antagonist project, dose response (AID 743444); format: functional;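 further: transfected HEK 293 cells stimulated with alpha-MSH peptide; potency of inhibitors of the alpha-MSH evoked signal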
# [17] = toxicity toward HepG2 liver cells – cell-based, plate reader, cherry-pick, antagonist series, cytotoxicity control, dose response (AID 743416); format: functional
# [18] = A549 cell cytotoxicity, dose response, cytotoxicity control, plate reader, cherry-pick, antagonist series (AID 743412); format: functional, cell-based
# [19] = blockers of bursicon-stimulated LGR2 cAMP reporter – cell-based, HEK293, CRE-luciferase reporter, cherry pick, set 2, dose response (AID 743343); format: functional;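 further: transfected cells were stimulated with diluted bursicon conditioned medium after compound addition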
# [20] = DRD fibroblast viability loss – cell-based, non-viral oncogenic, luminescence, dose response (AID 1934); format: functional; settings: Homo sapiens
# [21] = reduced cellular PGC1a acetyl-lysine signal – cell-based, cherry-picked samples, dose response (AID 720514); format: functional;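 further: potency may reflect raised or lowered acetylation signal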
# [22] = alpha-synuclein stem-loop luciferase translation blockers – H4 neuroglioma cells, luminescence, confirmation (AID 1988); format: functional, cell-based
# [23] = luciferase reporter signal suppression in cells – H4 neuroglioma cells, luminescence, dose response (AID 1990); format: functional, cell-based
# BJ [24] = experiment: BJ-TERT-LT-ST fibroblast viability loss – cell-based, RAS-independent, luminescence, dose response (AID 1935); format: functional; settings: Homo sapiens;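 further: BJ fibroblasts immortalized with TERT plus LT and ST oncogenes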
# BJ [25] = experiment: BJ-TERT fibroblast viability loss – cell-based, RAS-independent, luminescence, dose response (AID 1933); format: functional; settings: Homo sapiens
# BJ [26] = experiment: cells; format: functional, cell-based; settings: Homo sapiens
# [27] = Luminescence Cell-Based Dose Response HTS to Identify Inhibitors of 5'UTR Stem-Loop Driven Prion Protein mRNA Translation in H4 Neuroglioblastoma Cells. [Related pubchem assays: 1827 (Project Summary), 1813 (Primary HTS)]; format: functional
# Large T antigen = Large T antigen (Simian virus 40, UniProt P03070); format: functional, Betapolyomavirus macacae;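 further: Confirmatory-stage PubChem screen for compounds that inhibit SV40 T antigen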
# [28] = viability loss in CEM21 cells – cell-based, CellTiter-Glo luminescence, cherry-picked, cytotoxicity control for viral fusion inhibitor project, dose response (AID 652042); format: functional;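 further: potency for signal decrease meaning cytotoxicity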
# [29] = HIV-1 AD8 envelope cell-cell fusion blockers – cherry-pick, dose response (AID 652062); format: functional, cell-based;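 further: luciferase signal from cell-cell fusion driven by HIV-1 clade B AD8 Env; potency is for inhibitors of fusion seen as a drop in luminescence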
# [30] = off-target signal loss in HeLa-CEM21 co-culture – HeLa F-luc CTL cells, cherry-picked, counter-screen for HIV-1 Env fusion inhibitor project, dose response (AID 652040); format: functional, cell-based;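 further: potency for signal decrease marking cytotoxic or nonspecific inhibition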
# [31] = blockers of HIV-1 envelope-mediated cell-cell fusion – cherry-pick, dose response (AID 652057); format: functional, cell-based
# [32] = P. falciparum Dd2 growth inhibitors, dose response, SYBR Green, cherry-picked samples (AID 1159567); format: functional, cell-based
# [33] = toxicity to human hepatoma HepG2 cells – cell-based, cherry-picked samples, cytotoxicity control, dose response (AID 1159577); format: functional
# Sequence of E3 ubiquitin-protein ligase Mdm2 (Q00987 whole entry): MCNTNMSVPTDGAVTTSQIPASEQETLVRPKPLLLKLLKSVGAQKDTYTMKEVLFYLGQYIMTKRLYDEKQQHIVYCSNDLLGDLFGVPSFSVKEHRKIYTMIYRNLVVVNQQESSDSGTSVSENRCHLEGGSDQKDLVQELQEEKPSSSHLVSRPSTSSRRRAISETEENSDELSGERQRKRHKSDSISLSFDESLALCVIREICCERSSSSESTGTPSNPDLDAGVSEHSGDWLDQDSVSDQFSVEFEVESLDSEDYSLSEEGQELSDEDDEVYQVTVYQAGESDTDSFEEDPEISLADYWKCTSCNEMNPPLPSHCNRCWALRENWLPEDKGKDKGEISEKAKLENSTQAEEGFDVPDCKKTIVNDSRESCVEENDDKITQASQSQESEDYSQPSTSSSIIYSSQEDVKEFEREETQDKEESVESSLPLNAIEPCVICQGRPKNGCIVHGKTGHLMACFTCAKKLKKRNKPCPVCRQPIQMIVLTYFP
# Sequence of Paired box protein Pax-8 (Q06710 whole entry): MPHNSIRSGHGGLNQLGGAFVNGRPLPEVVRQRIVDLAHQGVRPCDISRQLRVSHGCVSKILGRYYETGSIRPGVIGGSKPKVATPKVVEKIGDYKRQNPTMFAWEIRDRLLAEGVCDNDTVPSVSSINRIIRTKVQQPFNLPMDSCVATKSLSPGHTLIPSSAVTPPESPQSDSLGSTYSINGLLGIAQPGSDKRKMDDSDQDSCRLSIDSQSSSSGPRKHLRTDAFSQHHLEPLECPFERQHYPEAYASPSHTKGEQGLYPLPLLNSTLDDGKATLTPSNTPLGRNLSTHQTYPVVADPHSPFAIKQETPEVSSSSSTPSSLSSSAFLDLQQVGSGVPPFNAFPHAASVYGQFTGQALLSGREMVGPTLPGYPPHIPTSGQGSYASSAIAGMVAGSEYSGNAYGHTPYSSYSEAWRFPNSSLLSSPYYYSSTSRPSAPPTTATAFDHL
# Sequence of Large T antigen (P03070 whole entry, the tested form may be a part): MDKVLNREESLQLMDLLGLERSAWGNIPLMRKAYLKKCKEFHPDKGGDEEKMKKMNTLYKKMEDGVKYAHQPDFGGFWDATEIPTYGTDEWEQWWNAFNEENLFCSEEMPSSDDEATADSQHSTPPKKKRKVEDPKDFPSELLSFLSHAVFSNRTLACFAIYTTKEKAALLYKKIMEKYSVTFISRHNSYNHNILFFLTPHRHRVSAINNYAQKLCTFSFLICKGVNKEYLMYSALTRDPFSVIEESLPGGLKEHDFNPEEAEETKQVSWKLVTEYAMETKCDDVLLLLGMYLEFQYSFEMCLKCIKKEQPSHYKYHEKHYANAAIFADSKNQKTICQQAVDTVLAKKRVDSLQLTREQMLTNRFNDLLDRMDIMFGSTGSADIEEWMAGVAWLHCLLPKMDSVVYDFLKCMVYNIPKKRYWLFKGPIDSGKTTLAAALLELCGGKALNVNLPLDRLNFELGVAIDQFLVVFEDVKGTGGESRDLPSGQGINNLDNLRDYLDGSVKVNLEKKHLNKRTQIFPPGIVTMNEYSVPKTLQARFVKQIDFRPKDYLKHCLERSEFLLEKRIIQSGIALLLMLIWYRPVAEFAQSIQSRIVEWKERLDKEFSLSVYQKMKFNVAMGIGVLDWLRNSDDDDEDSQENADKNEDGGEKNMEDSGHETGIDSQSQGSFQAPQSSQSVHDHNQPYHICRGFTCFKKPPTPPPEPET
smiles,measurement,setting,value
CN1CCN(CCCNC(=O)c2ccc(/C=C3\Oc4ccccc4N(Cc4ccc(Cl)cc4)C3=O)cc2)CC1,IC50,Bcl-2-related protein A1,> 20 µM (inactive)
same,IC50,[1],1.35 µM (active)
same,EC50,[2],> 150 µM (inconclusive)
same,AC50,Paired box protein Pax-8,16.9 µM (active)
same,AC50,[3],0.974 µM (active)
same,AC50,[4],3.55 µM (active)
same,AC50,[5],17.9 µM (active)
same,IC50,[6],12.4 µM (active)
same,EC50,[7],> 38 µM (not active)
O=C(O)c1ccc2c(c1)N(Cc1ccccc1F)C(=O)c1ccccc1[S+]2[O-] (stereo not drawn),EC50,[8],237 µM (not active)
Cc1ccc(CNC(=O)C2c3ccccc3C(=O)N3CCc4ccccc4C23)o1 (stereo not drawn),IC50,[9],> 100 µM (active)
O=C(CN1C(=O)/C(=C\C=C\c2ccccc2)SC1=S)Nc1ccc(F)cc1,IC50,[10],7.54 µM (active)
same,IC50,[11],5.21 µM (active)
same,EC50,[12],> 300 µM (not active)
same,EC50,[13],> 300 µM (not active)
COc1cccc(OC)c1C(=O)NNC(=O)c1cccc(COc2ccc3c(c2)CCC3)c1,EC50,[8],0.0021 µM (active)
COc1ccc(-c2csc(NC(CO)c3nc4ccccc4n3Cc3ccc(C)cc3)n2)cc1 (stereo not drawn),CC50,[14],> 40 µM (active)
Cc1ccn2cc(-c3ccc(Br)cc3)nc2c1,AC50,[15],42.6 µM (active)
same,AC50,[16],2.76 µM (active)
same,AC50,[17],49.2 µM (active)
same,AC50,[18],> 52 µM (inactive)
same,AC50,[19],3.6 µM (active)
O=C(CN1CCN(c2ncccn2)CC1)NCc1ccccc1,EC50,[8],34 µM (not active)
CCOc1ccc(N(CC(=O)Nc2ccccc2OC)S(=O)(=O)c2ccccc2)cc1,EC50,[20],0.663 µM (active)
same,AC50,[21],30.7 µM (active)
same,EC50,[22],0.323 µM (active)
same,EC50,[23],4.97 µM (active)
same,EC50,BJ [24],0.804 µM (active)
same,EC50,BJ [25],0.928 µM (active)
same,EC50,BJ [26],20.3 µM (active)
same,EC50,[27],0.36 µM (active)
COc1cc([N+](=O)[O-])ccc1NC(=O)Oc1ccc(NC(C)=O)cc1,IC50,Large T antigen,8.79 µM (active)
same,IC50,[9],> 100 µM (active)
CCOC(=O)c1cnc2ccc(OCC)cc2c1NCc1ccccc1OC,AC50,[28],19.4 µM (active)
same,AC50,[29],35.4 µM (active)
same,AC50,[30],25.7 µM (active)
same,AC50,[4],4.51 µM (active)
same,AC50,[31],10.6 µM (active)
CN(C)c1nc(SCCOC(=O)COc2ccc(Cl)cc2Cl)nc(N(C)C)n1,AC50,[21],26.1 µM (active)
OC[C@@H]1[C@@H](c2ccc(C#CC3CCCC3)cc2)[C@H]2CN(CCC(F)(F)F)CCCCN12,AC50,[32],1.02 µM (active)
same,AC50,[21],12.9 µM (active)
same,AC50,[33],8.47 µM (active)
Cc1cc(/C=N/n2cnnc2)c(C)n1-c1cccc(Cl)c1,IC50,[9],> 100 µM (active)
